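Each compound was tested at five concentrations against cells in 96-well plates for 48 hours. The concentration for 50% growth inhibition is given as GI50. TGI is the concentration that stops growth completely.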
How the values were obtained:
Experiment in all cases: growth of human tumour cells (NCI), 48 h
K-562 leukemia = system: K-562 leukemia
RXF 393 renal = system: RXF 393 renal
DU-145 prostate = system: DU-145 prostate
SR leukemia = system: SR leukemia
OVCAR-3 ovarian = system: OVCAR-3 ovarian
SK-MEL-2 melanoma = system: SK-MEL-2 melanoma
OVCAR-8 ovarian = system: OVCAR-8 ovarian
CAKI-1 renal = system: CAKI-1 renal
HOP-92 NSCLC = system: HOP-92 NSCLC
UO-31 renal = system: UO-31 renal

| SMILES | GI50 (K-562 leukemia) [µM] | TGI (K-562 leukemia) [µM] | GI50 (RXF 393 renal) [µM] | TGI (RXF 393 renal) [µM] | GI50 (DU-145 prostate) [µM] | TGI (DU-145 prostate) [µM] | TGI (SR leukemia) [µM] | GI50 (OVCAR-3 ovarian) [µM] | TGI (OVCAR-3 ovarian) [µM] | GI50 (SK-MEL-2 melanoma) [µM] | TGI (SK-MEL-2 melanoma) [µM] | GI50 (OVCAR-8 ovarian) [µM] | TGI (OVCAR-8 ovarian) [µM] | GI50 (CAKI-1 renal) [µM] | TGI (CAKI-1 renal) [µM] | GI50 (HOP-92 NSCLC) [µM] | TGI (HOP-92 NSCLC) [µM] | GI50 (UO-31 renal) [µM] | TGI (UO-31 renal) [µM] | GI50 (SR leukemia) [µM] |
| --- | --- | --- | --- | --- | --- | --- | --- | --- | --- | --- | --- | --- | --- | --- | --- | --- | --- | --- | --- | --- |
| Clc1ccc(-c2cn3ccnc3c(-c3ccc(Cl)cc3)n2)cc1 | 2.25 | > 100 | 3.57 | > 100 | 25.3 | > 100 | 4.02 | 16.8 | > 100 | 61.9 | > 100 | 16 | > 100 | 4.23 | 46 | 15.1 | > 100 |  |  |  |
| CC1=C([Se]CC(OC(=O)CC[Se]c2ccccc2)C(=O)NC(C)(C)C)C(=O)c2ccccc2C1=O (stereo unspecified) | 0.729 | 3.08 |  |  | 1.97 | 3.6 | 3.37 | 1.61 | 3.11 | 2 | 3.7 | 1.77 | 3.27 | 2.37 | 4.58 | 1.55 | 2.92 | 1.17 | 2.43 | 0.938 |
| Cc1c2cnccc2c(C)c2c1c1cc(C#N)ccc1n2C | 0.247 | 1.33 | 0.128 | 0.393 | 0.208 | 0.836 | 3.06 | 0.215 | 0.792 | 0.256 | 0.771 | 0.103 | 1.96 | 0.0929 | 1.34 | 0.18 | 0.708 | 0.137 | 0.869 | 0.0588 |
| CCSC1=NC2C(N(CC)C(=O)N2CC)N1/N=C/C=C/c1ccccc1[N+](=O)[O-] (stereo unspecified) | 0.0583 | > 100 | 0.033 | > 100 | 0.325 | > 100 | > 48 | 0.169 |  | 0.567 | > 100 | 0.385 | > 100 | 0.0647 | > 100 | 1.17 | > 83.8 | 0.664 | > 100 | 0.0895 |
| COc1cccc(-c2nc3cc(NC(=O)c4ccc(Cl)c(C#N)c4)ccc3o2)c1 | 2.69 | > 100 | 3.12 | 9.45 | 2.36 | > 100 | > 100 |  |  | 9.21 | 74.2 |  |  | 23.3 | > 100 | 3.01 | 8.56 | 3.95 | > 100 | 35.1 |
| COc1ccc(C2=Nn3c(nnc3-c3cc(Cl)cc(Cl)c3Cl)SC2)cc1 | 0.44 | > 31.6 |  |  | 0.355 | 4.42 |  | 0.173 | 0.772 | 1.21 | > 55.7 | 0.862 | > 40.7 | 0.562 | > 49.7 | > 33.9 | > 100 | 0.379 | 29.2 | 0.826 |
| FC(F)(F)c1cccc(-c2nc3nc(Cl)c(Cl)nc3[nH]2)c1 |  | 17 |  | 27 |  | > 100 | 12.2 |  | 14.9 |  | 6.02 |  | > 100 |  | 11 |  | 9.79 |  | 3.88 |  |
| CN(C)CCNC(=O)Cn1ccc(=O)c2cc([N+](=O)[O-])ccc21 |  | > 100 |  | > 100 |  | > 100 | > 100 |  | > 100 |  | > 100 |  |  |  | > 100 |  | > 100 |  | > 100 |  |
| CO/N=C(\COc1ccc2c(c1)[nH]c1ccccc12)c1ccc(OC)cc1 | 31 | > 100 | 15.8 | > 100 | > 100 | > 100 | > 100 | 32.9 | > 100 |  |  | 5.84 | 27.5 |  |  | 11.9 | > 100 | > 100 | > 100 | 71.6 |
| C/C(=N/O)c1cccc(Nc2cc(-n3nnc4ccccc43)nc3ccccc23)c1 | 5.91 | 82.1 | 14.7 | 43 | 11.6 | 41.3 | 35.2 | 13 | 31.7 | 28 | > 63.2 | 13.5 | 51.8 | 16.8 | 43.5 |  |  | 25 | > 100 | 15 |
| O=C(O)c1nc(NCc2nc3cc(Cl)ccc3o2)n[nH]1 | > 100 | > 100 | > 100 | > 100 | > 100 | > 100 | > 100 | > 100 | > 100 | > 100 | > 100 | > 100 | > 100 | > 100 | > 100 |  |  | > 100 | > 100 | > 100 |
| COc1cc2c(c3c1c(=O)c1ccccc1n3C)C=CC1(CCCC1)O2 |  | 21.7 |  | 22.8 |  | 31.6 | 52.8 |  | 38.1 |  | 33.6 |  | 57.8 |  | 6.33 |  | 31.7 |  |  |  |
| CC(=O)Nc1ccc(-c2cc(C(=O)O)c3cc4ccccc4cc3n2)cc1 |  | > 100 |  | > 100 |  | > 100 | > 100 |  | > 100 |  | > 100 |  | > 100 |  | > 100 |  | > 100 |  |  |  |
| O=[N+]([O-])c1ccccc1N=Nc1c(O)[nH]c2cccc(C(F)(F)F)c12 |  | > 100 |  | > 100 |  | > 100 | 15.7 |  | 62.2 |  | > 100 |  | > 100 |  | > 100 |  |  |  | > 100 |  |
| Oc1cccc(Nc2nc3ccccc3c3occc23)c1 | 4.81 | 55.8 |  |  | 12.2 | 24.6 | 18.8 | 2.09 | 12.9 | 13.2 | 27.7 | 13 | 30.5 | 2.04 | 6.65 | 9.07 | 21.3 | 10.5 | 22.2 | 1.38 |
| c1ccc(NN(Cc2cnccn2)c2ccccc2)cc1 |  | > 100 |  | > 100 |  | > 100 | > 100 |  | > 100 |  | > 100 |  | > 100 |  | > 100 |  | 89.7 |  |  |  |
| C=CCc1c(Cl)nc(Cl)nc1Cl |  | 0.125 |  | 0.601 |  | 4.86 | > 100 |  | 0.311 |  |  |  | 1.32 |  | 0.0367 |  | 0.749 |  | 0.165 |  |
